According to ChEMBL document CHEMBL1641405, “Click chemistry inspired one-pot synthesis of 1,4-disubstituted 1,2,3-triazoles and their Src kinase inhibitory activity” (Bioorg Med Chem Lett, 2011):
pIC50: −log10 of the molar value.

The compounds below were run against Tyrosine-protein kinase Lck (Homo sapiens, UniProt P06239) (assay: Inhibition of human activated Lck).
Tyrosine-protein kinase Lck, sequence (P06239 whole entry): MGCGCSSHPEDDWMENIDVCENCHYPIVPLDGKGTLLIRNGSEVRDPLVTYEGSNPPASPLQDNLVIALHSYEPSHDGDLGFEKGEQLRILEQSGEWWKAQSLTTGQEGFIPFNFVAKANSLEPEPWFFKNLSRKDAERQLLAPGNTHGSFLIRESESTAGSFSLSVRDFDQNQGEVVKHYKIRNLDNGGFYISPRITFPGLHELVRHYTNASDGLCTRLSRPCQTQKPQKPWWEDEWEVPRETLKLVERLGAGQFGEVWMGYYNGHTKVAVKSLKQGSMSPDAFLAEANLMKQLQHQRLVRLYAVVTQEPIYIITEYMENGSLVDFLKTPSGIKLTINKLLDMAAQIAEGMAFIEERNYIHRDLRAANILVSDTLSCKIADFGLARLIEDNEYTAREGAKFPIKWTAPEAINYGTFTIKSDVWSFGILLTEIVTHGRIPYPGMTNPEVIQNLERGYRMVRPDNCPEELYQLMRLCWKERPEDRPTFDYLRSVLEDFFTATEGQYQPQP

| pIC50 | SMILES |
| --- | --- |
| < 4.00 | Cc1ccc(-c2cn(C3CCCCC3=O)nn2)cc1 (configuration not stated) |

Each compound was assayed against T1, Proto-oncogene tyrosine-protein kinase Src (Homo sapiens, UniProt P12931) (assay: Inhibition of c-Src after 60 mins).
T1 sequence (P12931 2-536 limits assumed): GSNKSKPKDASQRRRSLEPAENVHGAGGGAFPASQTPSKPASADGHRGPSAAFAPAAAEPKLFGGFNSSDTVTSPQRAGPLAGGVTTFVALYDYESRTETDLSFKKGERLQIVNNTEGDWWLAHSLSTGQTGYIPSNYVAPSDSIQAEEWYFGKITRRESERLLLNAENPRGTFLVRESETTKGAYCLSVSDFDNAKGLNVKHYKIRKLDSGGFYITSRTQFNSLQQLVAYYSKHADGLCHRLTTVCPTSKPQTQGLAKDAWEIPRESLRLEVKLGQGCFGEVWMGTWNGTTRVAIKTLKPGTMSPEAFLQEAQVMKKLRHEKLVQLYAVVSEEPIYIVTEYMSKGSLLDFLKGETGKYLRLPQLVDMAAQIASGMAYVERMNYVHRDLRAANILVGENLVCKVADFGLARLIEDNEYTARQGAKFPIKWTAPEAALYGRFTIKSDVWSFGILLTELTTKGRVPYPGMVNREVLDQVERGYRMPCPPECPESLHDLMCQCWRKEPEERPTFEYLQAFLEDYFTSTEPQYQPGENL

| SMILES | pIC50 |
| --- | --- |
| Cc1ccc(-c2cn(C3CCCCC3=O)nn2)cc1 (configuration not stated) | 4.47 |
| Cc1ccc(-c2cn(C3CCCC3=O)nn2)cc1 (configuration not stated) | 4.21 |
| CCNC(=O)Cn1cc(-c2ccccc2)nn1 | < 3.82 |
| O=C(Cn1cc(-c2ccsc2)nn1)c1ccc(Cl)cc1 | < 3.82 |
| Cc1ccc(-c2cn(CC(=O)c3ccc(Cl)cc3)nn2)cc1 | 3.96 |
| O=C(Cn1cc(-c2ccccc2)nn1)c1cccs1 | 4.49 |
| CC(=O)Cn1cc(-c2ccccc2)nn1 | < 3.82 |
| Cc1ccc(C(=O)Cn2cc(-c3ccc(C)cc3)nn2)cc1 | 4.30 |
| O=C(Cn1cc(CCCCCl)nn1)c1ccc(Br)cc1 | < 4.00 |
| Cc1ccc(-c2cn(CC(=O)c3cc4ccccc4oc3=O)nn2)cc1 | < 3.82 |
| O=C1CCCCC1n1cc(-c2ccccc2)nn1 (configuration not stated) | 4.36 |
| COc1ccc(C(=O)Cn2cc(-c3cccc(C)c3)nn2)cc1 | 4.14 |
| Cc1ccc(C(=O)Cn2cc(-c3ccc(F)c(C)c3)nn2)cc1 | 4.08 |
| O=C(/C=C/c1ccccc1)Cn1cc(-c2ccccc2)nn1 | < 4.00 |
| O=C1CCCC1n1cc(-c2ccccc2)nn1 (configuration not stated) | 3.98 |
| O=C(Cn1cc(-c2ccccc2)nn1)c1ccc(-c2cc3ccccc3oc2=O)cc1 | 4.05 |

Second part, the compound after the results:

| pIC50 | SMILES |
| --- | --- |
| 4.18 | Cc1ccc(-c2cn(C3CCCCCC3=O)nn2)cc1 (configuration not stated) |
| < 4.00 | COC(=O)Cn1cc(-c2ccccc2)nn1 |
| < 3.82 | CC(=O)Cn1cc(-c2ccc(C)cc2)nn1 |
| 4.38 | Cc1ccc(-c2cn(CC(=O)c3ccccc3)nn2)cc1 |
| < 4.00 | O=C(Cn1cc(-c2ccccc2)nn1)c1ccccc1 |
| 4.09 | Cc1cc(-c2cn(CC(=O)c3ccccc3)nn2)ccc1F |
| < 4.00 | COc1ccc(C(=O)Cn2cc(-c3ccccc3)nn2)cc1 |
| 3.86 | O=C(Cn1cc(-c2ccccc2)nn1)c1ccc(Cl)cc1 |

Each compound was assayed against T1, Proto-oncogene tyrosine-protein kinase Src (assay: Inhibition of c-Src at 75 uM after 60 mins).

| SMILES | inhibition [%] |
| --- | --- |
| O=C(Cn1cc(-c2ccc(F)cc2)nn1)c1ccc(Br)cc1 | < 10 |
| O=C1CCCCC1n1cc(-c2ccc(F)cc2)nn1 (configuration not stated) | < 10 |
| COc1ccc(-c2cn(C3CCCC3=O)nn2)cc1 (configuration not stated) | < 10 |
| CCCCc1cn(CC(=O)c2ccccc2)nn1 | < 10 |
| CCCCc1cn(CC(=O)c2ccc(Br)cc2)nn1 | < 10 |
| O=C1CCCC1n1cc(-c2ccc(F)cc2)nn1 (configuration not stated) | < 10 |
| O=C1CCCCC1n1cc(-c2ccsc2)nn1 (configuration not stated) | < 10 |
| O=C1CCCC(n2cc(-c3ccccc3)nn2)C1 (configuration not stated) | < 10 |
| O=C1CCC(n2cc(-c3ccccc3)nn2)C1 (configuration not stated) | < 10 |

Now from value to compound:

| inhibition [%] | SMILES |
| --- | --- |
| < 10 | O=C(Cn1cc(-c2ccccn2)nn1)c1ccccc1 |
| < 10 | O=C1CCCC1n1cc(-c2ccsc2)nn1 (configuration not stated) |
| < 10 | Cc1ccc(-c2cn(CC(=O)c3ccc(Br)cc3)nn2)cc1 |
| < 10 | COc1ccc(-c2cn(CC(=O)c3ccc(Cl)cc3)nn2)cc1 |
| < 10 | COc1ccc(-c2cn(C3CCCCC3=O)nn2)cc1 (configuration not stated) |
| < 10 | O=C(Cn1cc(-c2ccc(F)cc2)nn1)c1ccc(Cl)cc1 |

Each compound was assayed against Tyrosine-protein kinase CSK (Homo sapiens) (UniProt P41240) (assay: Inhibition of human Cck).

| pIC50 | SMILES |
| --- | --- |
| < 4.00 | Cc1ccc(-c2cn(C3CCCCC3=O)nn2)cc1 (configuration not stated) |

Each compound was assayed against Epidermal growth factor receptor (Homo sapiens, UniProt P00533) (assay: Inhibition of human EGFR).
Epidermal growth factor receptor, sequence (P00533 whole entry): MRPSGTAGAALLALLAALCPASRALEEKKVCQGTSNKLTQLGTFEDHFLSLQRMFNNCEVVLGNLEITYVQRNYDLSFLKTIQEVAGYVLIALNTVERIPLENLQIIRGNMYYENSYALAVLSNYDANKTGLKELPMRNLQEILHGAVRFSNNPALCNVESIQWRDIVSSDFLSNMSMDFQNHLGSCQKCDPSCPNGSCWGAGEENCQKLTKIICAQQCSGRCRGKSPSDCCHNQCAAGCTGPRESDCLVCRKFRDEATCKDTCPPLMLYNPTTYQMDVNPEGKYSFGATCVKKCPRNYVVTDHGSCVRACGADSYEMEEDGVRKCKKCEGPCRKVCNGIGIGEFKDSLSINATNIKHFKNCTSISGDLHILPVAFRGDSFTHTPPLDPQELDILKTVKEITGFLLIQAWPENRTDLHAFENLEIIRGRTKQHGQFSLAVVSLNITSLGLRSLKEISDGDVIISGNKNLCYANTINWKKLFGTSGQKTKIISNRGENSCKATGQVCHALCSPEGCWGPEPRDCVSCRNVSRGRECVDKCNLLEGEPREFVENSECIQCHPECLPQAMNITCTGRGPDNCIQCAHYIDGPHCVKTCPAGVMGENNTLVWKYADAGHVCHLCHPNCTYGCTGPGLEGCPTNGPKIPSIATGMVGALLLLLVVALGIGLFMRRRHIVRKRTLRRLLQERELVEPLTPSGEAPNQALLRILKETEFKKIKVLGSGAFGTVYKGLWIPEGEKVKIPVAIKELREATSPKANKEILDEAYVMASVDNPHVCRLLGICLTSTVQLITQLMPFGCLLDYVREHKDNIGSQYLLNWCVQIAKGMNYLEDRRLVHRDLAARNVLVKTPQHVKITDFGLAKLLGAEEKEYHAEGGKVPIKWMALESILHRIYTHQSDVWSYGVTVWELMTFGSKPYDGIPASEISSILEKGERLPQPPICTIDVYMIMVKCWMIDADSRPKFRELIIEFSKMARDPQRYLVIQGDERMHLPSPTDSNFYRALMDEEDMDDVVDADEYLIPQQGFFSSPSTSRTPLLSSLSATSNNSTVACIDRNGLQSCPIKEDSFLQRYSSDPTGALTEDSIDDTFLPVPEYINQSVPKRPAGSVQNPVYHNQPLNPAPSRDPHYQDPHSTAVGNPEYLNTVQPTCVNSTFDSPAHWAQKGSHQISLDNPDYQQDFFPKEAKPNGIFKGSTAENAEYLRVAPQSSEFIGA

| pIC50 | SMILES |
| --- | --- |
| < 4.00 | Cc1ccc(-c2cn(C3CCCCC3=O)nn2)cc1 (configuration not stated) |
